Results from patent publication EP0515159A1, “Ursane derivatives, their preparation and pharmaceutical formulations thereof” (IDB HOLDING S.p.A., priority 1991, dated 1992).
Where a name gives a salt, the structure may show the parent alone. Read-outs that look alike come from different tables or passages of the source.

Columns and labels:
[1] = system: alcohol-induced gastric lesions; assay: Alcohol-induced ulcer (gastric lesions) in the rat; format: in vivo; conditions: for inhibition at 50 mg/kg: dose 50.0 mg/kg os; for inhibition at 100 mg/kg: dose 100.0 mg/kg os; for inhibition at 200 mg/kg: dose 200.0 mg/kg os; for ED50: by mouth, inhibition of alcohol-induced gastric lesions, read-out: ED₅₀ mg/kg and confidence limits (p = 0.95); for ED50 / oral therapeutic indices (LD₅₀/ED₅₀) Alcohol-induced ulcer: rat; for R: potency ratio relative to Carbenoxolone (= 1.0), alcohol-induced lesions; for inhibition at 12.5 mg/kg: dose 12.5 mg/kg os; for oral therapeutic indices (LD₅₀/ED₅₀) Alcohol-induced ulcer: oral LD50 / ED50 in alcohol-induced ulcer; for inhibition at 6.25 mg/kg: dose 6.25 mg/kg os
Method: The gastric lesions were induced in male Sprague-Dawley rats weighing 120-140 g, which had been fasted for 48 h, by administering 1 ml/rat of 90% alcohol by mouth. One hour after administration of the damage-inducing agent, the animals were sacrifed in an excess of ether and the stomachs opened along the major curvature; the gastric lesions were measured in mm² and expressed as the percentage of inhibition compared with the controls. The substances under investigation, suspended in 0.5% Methocel, were administered by mouth 1 hour before the alcohol.

[2] = system: Diclofenac-induced gastric ulcers; assay: Diclofenac-induced ulcer (gastric lesions) in the rat; format: in vivo; conditions: for ED50: by mouth, inhibition of Diclofenac-induced gastric lesions, read-out: ED₅₀ and confidence limits (p = 0.95); for ED50 / oral therapeutic indices (LD₅₀/ED₅₀) Diclofenac-induced ulcer: rat; for % Inhibition: 1 h before 100 mg/kg Diclofenac, sacrifice 5 h after; for R: potency ratio relative to Carbenoxolone (= 1.0), Diclofenac-induced ulcers; for oral therapeutic indices (LD₅₀/ED₅₀) Diclofenac-induced ulcer: oral LD50 / ED50 in Diclofenac-induced ulcer
Method: Female Sprague-Dawley rats weighing 180-200 g that had been fasted for 24 h were used in this experiment. The gastric lesions were induced by a single oral dose of 100 mg/kg Diclofenac.
The animals were sacrificed 5 h after administration of the damage-inducing agent. The gastric lesions were measured in mm² and expressed as a percentage of inhibition.
The substances under investigation, suspended in 0.5% Methocel, were administered by mouth 1 h before the anti-inflammatory agent.

[3] = Antidiuretic activity: effects on urinary excretion in the rat; format: in vivo; conditions: for Electrolyte output, mEq/6h/rat K^+ / Electrolyte output, mEq/6h/rat Na^+ / Na^+/K^+ / Urine volume (0-6 h): urine collected 6 hours after fifth dose
Method: The effect of compounds IIa and IIb (M=Na) on urinary excretion was investigated in male Sprague-Dawley rats weighing 180-200 g. […] Carbenoxolone in a dose of 200 mg/kg was used as a reference substance. The animals were fasted for 18 h before the last dose. The urine was collected for 6 hours after administration of the fifth dose and its content of Na⁺ and K⁺ was measured.

[4] = Acute toxicity in the rat; conditions: in vivo; for LD50 at 14 days: both sexes, Sprague-Dawley; for LD50 at 336 h: 14 days observation
Method: The acute toxicity of compounds IIa and IIb (M=Na) was evaluated in the rat after oral and intraperitoneal administration.
Each experimental group comprised 5 male and 5 female Sprague-Dawley rats. After being treated, the animals were kept under observation for 14 days and the dose that caused the death of 50% of the animals (LD₅₀) was calculated by the probit method (Finney D J. in "Probit Analysis", Cambridge University Press, 3rd Ed., Cambridge, 1971). The results shown in Table 4 indicate that, after intraperitoneal administration, the toxicity of both compounds is similar to that of the reference product.

[5] = Rattus norvegicus, 1 hour before 90% alcohol, lesions in mm² vs controls
[6] = 200 mg/kg os once a day for 5 days
[7] = 20 mg/kg os once a day for 5 days
[8] = ip, intraperitoneal, probit method, read-out: LD50 (confidence limits p = 0.95) mg/kg i.p
[9] = oral, 1000 mg/kg (LD10) = maximum dose that could be administered (2 doses of 500 mg/kg 1 h apart), read-out: LD50 (confidence limits p = 0.95) mg/kg p.o

C[C@H]1[C@H](C)CC[C@]2(C(=O)O)CC[C@]3(C)C(=CC=C4[C@@]5(C)CC[C@H](OC(=O)CCC(=O)O)C(C)(C)[C@@H]5CC[C@]43C)[C@H]12 [3β-(carboxy-propionyloxy)-ursa-9(11),12-dien-28-oic acid]
inhibition at 50 mg/kg [1, 5]: 28.4% | inhibition at 100 mg/kg [1, 5]: 45.6% | inhibition at 200 mg/kg [1, 5]: 76.3% | inhibition at 400 mg/kg ([1]; Rattus norvegicus, dose 400.0 mg/kg os, 1 hour before 90% alcohol, lesions in mm² vs controls): 80.1% | ED50 [1]: 106 mg/kg | R [1]: 0.8

CC1(C)[C@@H](OC(=O)c2ccccc2C(=O)O)CC[C@]2(C)[C@H]3CC=C4[C@@H]5C[C@@](C)(COC(=O)c6ccccc6C(=O)O)CC[C@]5(C)CC[C@@]4(C)[C@]3(C)CC[C@@H]12 [18β-olean-12-ene-3β,3-0-diol di-0-hemiphthalate]
inhibition at 0.8 mg/kg ([1]; Rattus norvegicus, dose 0.8 mg/kg os, 1 hour before 90% alcohol, lesions in mm² vs controls): 12% | inhibition at 3.12 mg/kg ([1]; Rattus norvegicus, dose 3.12 mg/kg os, 1 hour before 90% alcohol, lesions in mm² vs controls): 32% | inhibition at 12.5 mg/kg [1, 5]: 40.8% | inhibition at 50 mg/kg [1, 5]: 70.2% | ED50 [1]: 14.6 mg/kg | R [1]: 5.6 | ED50 [2]: 38.9 mg/kg | % Inhibition ([2]; dose 3.125 mg/kg os): 1.5% | % Inhibition ([2]; dose 6.25 mg/kg os): 5.9% | % Inhibition ([2]; dose 12.5 mg/kg os): 21.5% | % Inhibition ([2]; dose 25.0 mg/kg os): 29.8% | R [2]: 3.5

CC1(C)[C@@H](OC(=O)CCC(=O)O)CC[C@]2(C)[C@H]3C(=O)C=C4[C@@H]5C[C@@](C)(C(=O)O)CC[C@]5(C)CC[C@@]4(C)[C@]3(C)CC[C@@H]12 [Carbenoxolone, sodium salt of the hemisuccinate of β-glycyrrhetic acid]
inhibition at 50 mg/kg [1, 5]: 34.9% | inhibition at 100 mg/kg [1, 5]: 45% | inhibition at 200 mg/kg [1, 5]: 83% | ED50 [1]: 90.4 mg/kg | oral therapeutic indices (LD₅₀/ED₅₀) Alcohol-induced ulcer [1]: 34 | R [1]: 1.0 | ED50 [2]: 140 mg/kg | % Inhibition ([2]; dose 100.0 mg/kg os): 37.2% | % Inhibition ([2]; dose 150.0 mg/kg os): 45.6% | % Inhibition ([2]; dose 200.0 mg/kg os): 72.7% | % Inhibition ([2]; dose 400.0 mg/kg os): 90.9% | oral therapeutic indices (LD₅₀/ED₅₀) Diclofenac-induced ulcer [2]: 22 | R [2]: 1.0 | Electrolyte output, mEq/6h/rat K^+ [3, 6]: 0.12±0.01 mEq/6h/rat | Electrolyte output, mEq/6h/rat Na^+ [3, 6]: 0.10±0.01 mEq/6h/rat | Na^+/K^+ [3, 6]: 0.8 | Urine volume (0-6 h) [3, 6]: 1.5 ± 0.2 mL | Na^+/K^+ ([3]; 200 mg/kg os once a day for 5 days, listed as carbenoxolone): 0.5 | reducing diuresis ([3]; 200 mg/kg, versus controls): 67% | reduction in the excretion of Na⁺ ([3]; 200 mg/kg, versus controls): 72% | LD50 at 14 days ([4]; ip): 92 mg/kg | LD50 at 14 days ([4]; po): 3100 mg/kg

C[C@H]1[C@H](C)CC[C@]2(COC(=O)c3ccccc3C(=O)O)CC[C@]3(C)C(=CC[C@@H]4[C@@]5(C)CC[C@H](OC(=O)c6ccccc6C(=O)O)C(C)(C)[C@@H]5CC[C@]43C)[C@H]12 [IIa (M = Na), disodium salt of the dihemiphthalate or urs-12-ene-3β,28-diol]
inhibition at 2 mg/kg ([1]; Rattus norvegicus, dose 2.0 mg/kg os, 1 hour before 90% alcohol, lesions in mm² vs controls): 16.1% | inhibition at 2.5 mg/kg ([1]; Rattus norvegicus, dose 2.5 mg/kg os, 1 hour before 90% alcohol, lesions in mm² vs controls): 22.1% | inhibition at 3.125 mg/kg ([1]; Rattus norvegicus, dose 3.125 mg/kg os, 1 hour before 90% alcohol, lesions in mm² vs controls): 65.2% | inhibition at 6.25 mg/kg [1, 5]: 67.4% | ED50 [1]: 3.7 mg/kg | oral therapeutic indices (LD₅₀/ED₅₀) Alcohol-induced ulcer [1]: > 270 | R [1]: 25.6 | ED50 [2]: 7 mg/kg | % Inhibition ([2]; dose 3.125 mg/kg os): 8.9% | % Inhibition ([2]; dose 6.25 mg/kg os): 28.3% | % Inhibition ([2]; dose 7.5 mg/kg os): 62.3% | % Inhibition ([2]; dose 9.0 mg/kg os): 67.9% | oral therapeutic indices (LD₅₀/ED₅₀) Diclofenac-induced ulcer [2]: > 143 | R [2]: 16.3 | Electrolyte output, mEq/6h/rat K^+ [3, 7]: 0.14±0.01 mEq/6h/rat | Electrolyte output, mEq/6h/rat Na^+ [3, 7]: 0.21±0.01 mEq/6h/rat | Na^+/K^+ [3, 7]: 1.5 | Urine volume (0-6 h) [3, 7]: 3.0 ± 0.2 mL | LD50 at 336 h [4, 8]: 60 mg/kg | LD50 at 336 h [4, 9]: > 1000 mg/kg

C[C@H]1[C@H](C)CC[C@]2(COC(=O)c3ccccc3C(=O)O)CC[C@]3(C)C(=CC=C4[C@@]5(C)CC[C@H](OC(=O)c6ccccc6C(=O)O)C(C)(C)[C@@H]5CC[C@]43C)[C@H]12 [IIb (M = Na), disodium salt of the dihemiphthalate of ursa-9(11),12-diene-3β,28-diol]
inhibition at 6.25 mg/kg [1, 5]: 10.7% | inhibition at 12.5 mg/kg [1, 5]: 32.5% | inhibition at 16 mg/kg ([1]; Rattus norvegicus, dose 16.0 mg/kg os, 1 hour before 90% alcohol, lesions in mm² vs controls): 38.2% | inhibition at 25 mg/kg ([1]; Rattus norvegicus, dose 25.0 mg/kg os, 1 hour before 90% alcohol, lesions in mm² vs controls): 76.6% | ED50 [1]: 16.8 mg/kg | oral therapeutic indices (LD₅₀/ED₅₀) Alcohol-induced ulcer [1]: > 60 | R [1]: 5.5 | ED50 [2]: 6.4 mg/kg | % Inhibition ([2]; dose 3.125 mg/kg os): 37.4% | % Inhibition ([2]; dose 6.25 mg/kg os): 43.3% | % Inhibition ([2]; dose 12.5 mg/kg os): 72.0% | % Inhibition ([2]; dose 25.0 mg/kg os): 73.3% | oral therapeutic indices (LD₅₀/ED₅₀) Diclofenac-induced ulcer [2]: > 156 | R [2]: 17.8 | Electrolyte output, mEq/6h/rat K^+ [3, 7]: 0.13±0.02 mEq/6h/rat | Electrolyte output, mEq/6h/rat Na^+ [3, 7]: 0.19±0.02 mEq/6h/rat | Na^+/K^+ [3, 7]: 1.5 | Urine volume (0-6 h) [3, 7]: 2.8 ± 0.3 mL | LD50 at 336 h [4, 8]: 75 mg/kg | LD50 at 336 h [4, 9]: > 1000 mg/kg
